The results in this text go back to ChEMBL document CHEMBL1201862, “PubChem BioAssay data set” (2004).

Test in all cases: DTP human tumour cell line panel, 48 h
Assay [1] has as its system 786-0.
Assay [2] deals with A498.
Assay [3] deals with CCRF-CEM.
Assay [4] deals with HCT-15.
Assay [5] concerns M19-MEL.
The subject of assay [6] is MOLT-4.
Assay [7] relates to NCI-H23.
The subject of assay [8] is OVCAR-8.
In assay [9] the test system is RXF 393.
Assay [10] concerns SF-539.
The subject of assay [11] is SK-MEL-28.
The test system of assay [12] is SR.
In assay [13] the test system is SW-620.
The test system of assay [14] is U-251.
In assay [15] the test system is UACC-62.
Assay [16] relates to COLO 205.
Assay [17] deals with KM12.
For assay [18], the system named is SK-OV-3.

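These data come from cells grown in 96-well plates and exposed to compound for 48 hours at five concentrations. GI50: concentration for 50% inhibition of growth.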 Calls of active or inactive are those of the source. Rule as the data show it: active = GI50 up to about 1.1 µM and inactive = higher. Some results are limits rather than exact numbers.

Turning to `Cc1ccc(NC(=O)CC2C(=O)Nc3ccccc3S2(=O)=O)cc1C` (stereo unspecified), the GI50 (in general, the concentration giving 50% growth inhibition) in assay [1] was > 100 µM (inactive); in assay [2], > 100 µM (inactive); in assay [3], > 100 µM (inactive); in assay [4], over 100 µM; in [5] it was > 100 µM (inactive); in [6] it was > 100 µM (inactive). The GI50 in assay [7], in [8], in [9], in assay [10], in [11] and in assay [12] was > 100 µM (inactive) each time. Also, the GI50 in assay [13] was > 100 µM (inactive); in assay [14], > 100 µM (inactive); in assay [15], 84.7 µM (inactive).
`COC(=O)/C(=C/c1ccc(OC)cc1)C(C(=O)O)=C1CCCCC1`: the GI50 is > 100 µM (inactive) in [1]; > 100 µM (inactive) in assay [2]; > 100 µM (inactive) in [3]; > 100 µM (inactive) in assay [16]; over 100 µM in assay [4]; > 100 µM (inactive) in assay [17]. In addition, the GI50 in [5], in [6], in assay [7], in assay [8], in assay [9] and in assay [10] was > 100 µM (inactive) in each case. Further, the GI50 in assay [18], in assay [12], in assay [13], in [14] and in [15] was > 100 µM (inactive) each time.
With `CS(=O)(=O)c1ccc(-c2cc(-c3ccc(S(C)(=O)=O)cc3)[n+](-c3cc(-c4ccccc4)c([O-])c(-c4ccccc4)c3)c(-c3ccc(S(C)(=O)=O)cc3)c2)cc1`, the GI50 in [1] is > 100 µM (inactive); in [2] it was 44.7 µM (inactive); in assay [16], > 100 µM (inactive); in assay [4] it was over 100 µM; in assay [17], > 100 µM (inactive); in assay [5] it was > 100 µM (inactive). Moreover, the GI50 in assay [6], in assay [7], in assay [8], in assay [9], in assay [10] and in [11] was > 100 µM (inactive) each time. Moreover, the GI50 in [12], in [13], in [14] and in assay [15] was > 100 µM (inactive) in each case.
`On1c(-c2ccccc2)c(-c2ccccc2N2CCCC2)c2ccccc21`: the GI50 was > 100 µM (inactive) in [1]; > 100 µM (inactive) in assay [2]; > 100 µM (inactive) in assay [3]; > 100 µM (inactive) in assay [16]; over 100 µM in [4]; > 100 µM (inactive) in [17]. The GI50 in assay [5], in assay [6], in [7], in assay [8], in assay [10] and in [11] was > 100 µM (inactive) in each case. For the same compound, the GI50 in assay [18], in assay [12], in assay [13], in [14] and in assay [15] was > 100 µM (inactive) in each case.
Consider `Cc1ccc(NC(=O)/C(=N/NC(=O)C[N+](C)(C)C)c2nc3ccccc3nc2O)cc1`, for which the GI50 is > 100 µM (inactive) in [1]; > 100 µM (inactive) in [2]; 76.9 µM (inactive) in assay [16]; 81.1 µM in assay [4]; > 100 µM (inactive) in assay [5]; > 100 µM (inactive) in [6]. Also, the GI50 in assay [7], in assay [8], in assay [9], in assay [10], in [11] and in assay [18] was > 100 µM (inactive) each time. Moreover, the GI50 in [12] was > 100 µM (inactive); in [13], 15.7 µM (inactive); in assay [14] it was 27.4 µM (inactive); in assay [15] it was > 100 µM (inactive).
